{"source": "patent US20160058872A1", "about": "“IMIDE-BASED MODULATORS OF PROTEOLYSIS AND ASSOCIATED METHODS OF USE” (Arvinas, Inc., priority 2014, published 2016)", "tested_on": "c-Myc", "assay": "c-Myc protein level by immunoblot in BL cell lines", "assay_type": "cell-based", "settings": "24 hours, washout", "description": "Cultured cells were collected in lysis buffer containing 40 mM HEPES (pH 7.4), 140 mM NaCl, 2.5 mM EDTA, 1% NP-40, 0.1% SDS and protease inhibitor cocktail. After 10 minutes of centrifugation (14000 rpm), supernatant was collected for protein concentration determination by BCA method and subjected for immunoblotting by standard protocol. Western blot results were visualized using Bio-Rad Clarity ECL Western Blotting Substrate on Bio-Rad ChemiDoc™ MP imaging system.\nA separate set of cells were treated in the same manner, except that DMSO was used in place of the inhibitor. Following treatment, cell lysates were collected and analyzed by immunoblot for c-Myc and Actin.\nCells were re-seeded and incubated without inhibitor for 0 hr, 0.5 hr, 1.0 hr, 2.0 hr, 3.0 hr, 4.0 hr, and 6.0 hr. Cell lysates were then collected at the various time points and analyzed by immunoblot for c-Myc and Actin. In a parallel control experiment, NAMALWA cells were treated in the same manner, except DMSO was used in place of JQ1.\nAfter treatment, the cells were either lysed (to evaluate the suppression of c-Myc by the inhibitors) or washed to remove the inhibitor, re-seeded, and incubated without inhibitor for 4.0 hours (to evaluate the reversibility of c-Myc suppression). Cell lysates were collected and analyzed by immunoblot for c-Myc and Actin.\nFollowing treatment, cell lysates were collected and analyzed by immunoblot for BRD4, c-Myc and Actin.\nCells were re-seeded in fresh medium and incubated without any compound for 0 hr, 2.0 hr, 4.0 hr, 6.0 hr, and 24.0 hr. In a parallel control experiment, cells were treated in the same manner, except DMSO was used in place of inhibitor. Lysates were collected and analyzed by immunoblot for BRD4, c-Myc, and Actin.", "data": [{"smiles": "Cc1sc2c(c1C)C(c1ccc(Cl)cc1)=N[C@@H](CC(=O)OC(C)(C)C)c1nnc(C)n1-2", "note": "[JQ1]", "values": [{"measurement": "time to recovery of c-Myc to control level after removal", "setting": "NAMALWA, 1.0 μM", "value": "≤ 4", "unit": "h"}, {"measurement": "time to return of c-Myc to control level post removal", "setting": "NAMALWA, after 1000 nM", "value": "≤ 3.0", "unit": "h"}, {"measurement": "time to significant c-Myc increase after removal", "setting": "Ramos, after 1000 nM", "value": "≤ 4.0", "unit": "h"}]}]}
